Source: US10851064B2, “ACSS2 inhibitors and methods of use thereof” (METABOMED LTD., priority 2017, dated 2020)
Several values for one entry are separate records, joined by “and”; a condition that tells them apart may be missing. Equal values may be shown once.

Biological target: ACSS2 (Homo sapiens, UniProt Q9NR19)
Assay: biochemical
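Also: Cell-free human ACSS2 enzyme reaction with acetate, CoA and ATP, 90 min at 37 C, coupled to pyrophosphatase, phosphate release detected by Biomol Green absorbance at 620 nm.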

ACSS2, sequence (Q9NR19 whole entry): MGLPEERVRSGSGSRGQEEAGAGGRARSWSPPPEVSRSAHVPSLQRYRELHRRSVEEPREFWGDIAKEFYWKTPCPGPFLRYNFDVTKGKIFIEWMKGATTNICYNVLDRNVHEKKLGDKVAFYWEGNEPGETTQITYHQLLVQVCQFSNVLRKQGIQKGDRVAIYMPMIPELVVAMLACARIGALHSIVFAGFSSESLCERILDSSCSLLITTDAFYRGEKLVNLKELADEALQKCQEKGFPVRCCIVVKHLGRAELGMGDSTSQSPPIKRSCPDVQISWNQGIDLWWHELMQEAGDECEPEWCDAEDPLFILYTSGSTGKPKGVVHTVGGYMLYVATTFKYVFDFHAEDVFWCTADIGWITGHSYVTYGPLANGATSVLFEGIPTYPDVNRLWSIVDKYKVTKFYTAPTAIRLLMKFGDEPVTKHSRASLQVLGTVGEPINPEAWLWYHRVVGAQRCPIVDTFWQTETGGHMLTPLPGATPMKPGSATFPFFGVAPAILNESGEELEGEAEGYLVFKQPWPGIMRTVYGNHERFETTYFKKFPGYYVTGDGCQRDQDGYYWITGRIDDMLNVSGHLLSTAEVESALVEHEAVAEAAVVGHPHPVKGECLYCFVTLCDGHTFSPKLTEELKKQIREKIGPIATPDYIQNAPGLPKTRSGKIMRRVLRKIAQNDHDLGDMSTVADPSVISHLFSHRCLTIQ
Description: ACSS2 Cell-Free Activity Assay (Cell-Free IC50)
The assay is based on a coupling reaction with Pyrophosphatase: ACSS2 is converting ATP+CoA+Acetate=>AMP+pyrophosphate+Acetyl-CoA (Ac-CoA). Pyrophosphatase converts pyrophosphate, a product of the ACSS2 reaction, to phosphate which can be detected by measuring the absorbance at 620 nm after incubation with the Biomol green reagent (Enzo life Science, BML-AK111).
Cell-free IC50 Determination:
At the end of the reaction, Biomol Green was added for 30 minutes at RT and the activity was measured by reading the absorbance at 620 nm.

SMILES	IC50
COCc1cccc(NC(=O)C2C(=O)N(c3ccccc3)N=C2C)c1 (stereo not shown) [compound 103, N-(3-(methoxymethyl)phenyl)-3-methyl-5-oxo-1-phenyl-4,5-dihydro-1H-pyrazole-4-carboxamide]	100 to 1000 nM and 6 to 100 nM
CC1=NN(c2cccc(S(=O)(=O)N(C)C)c2)C(=O)C1C(=O)Nc1cccc(-c2cnccn2)c1 (stereo not shown) [compound 272]	6 to 100 nM
COc1ccc(N2N=C(C)C(C(=O)Nc3cccc(C(C)(F)F)c3)C2=O)cc1-c1nnc(C)[nH]1 (stereo not shown) [compound 385]	6 to 100 nM
CCc1cccc(NC(=O)C2C(=O)N(c3ccc(NC(C)=O)cc3)N=C2C)c1 (stereo not shown) [compound 144, 1-(4-acetamidophenyl)-N-(3-ethylphenyl)-3-methyl-5-oxo-4,5-dihydro-1H-pyrazole-4-carboxamide]	100 to 1000 nM
COc1ccc(N2N=C(C)C(C(=O)Nc3cccc(C(C)(F)F)c3)C2=O)c(F)c1 (stereo not shown) [compound 451]	0.01 to 6 nM
CCOc1ccc(N2N=C(C)C(C(=O)Nc3cccc(CC)c3)C2=O)cc1 (stereo not shown) [compound 134, 1-(4-ethoxyphenyl)-N-(3-ethylphenyl)-3-methyl-5-oxo-4,5-dihydro-1H-pyrazole-4-carboxamide]	1000 to 100000 nM
CC1=NN(c2ccc(OC(F)F)c(-c3nnc(C)o3)c2)C(=O)C1C(=O)Nc1cccc(C(C)(F)F)c1 (stereo not shown) [compound 429]	0.01 to 6 nM
CCc1ccc(NC(=O)C2C(=O)N(c3ccccc3)N=C2C)s1 (stereo not shown) [compound 260]	100 to 1000 nM
CC1=NN(c2ccccc2)C(=O)C1C(=O)NC1CCOCC1 (stereo not shown) [compound 112, 3-methyl-5-oxo-1-phenyl-N-(tetrahydro-2H-pyran-4-yl)-4,5-dihydro-1H-pyrazole-4-carboxamide]	1000 to 100000 nM
COc1cc(Cl)cc(N(C)C(=O)C2C(=O)N(c3ccc(OC(F)F)cc3)N=C2C)c1 (stereo not shown) [compound 392]	100 to 1000 nM
CC1=NN(c2ccc(OC(F)F)cc2)C(=O)C1C(=O)N(C)c1cc(F)cc(Cl)c1 (stereo not shown) [compound 394]	100 to 1000 nM
CC1=NN(c2ccccc2)C(=O)C1C(=O)Nc1ccc(O)cc1 (stereo not shown) [compound 205, N-(4-hydroxyphenyl)-3-methyl-5-oxo-1-phenyl-4,5-dihydro-1H-pyrazole-4-carboxamide]	1000 to 100000 nM
CCCCCc1cccc(NC(=O)C2C(=O)N(c3ccccc3)N=C2C)c1 (stereo not shown) [compound 118, 3-methyl-5-oxo-N-(3-pentylphenyl)-1-phenyl-4,5-dihydro-1H-pyrazole-4-carboxamide]	1000 to 100000 nM
CCCc1cc(-c2ccccc2)cc(N2N=C(C)C(C(=O)Nc3cccc(C(C)(F)F)c3)C2=O)c1 (stereo not shown) [compound 400]	6 to 100 nM
CC1=NN(c2ccc(C3CC3)cc2)C(=O)C1C(=O)Nc1cccc(C(C)(F)F)c1 (stereo not shown) [compound 457]	0.01 to 6 nM
CC1=NN(c2ccc(OC3CCCCC3)cc2)C(=O)C1C(=O)Nc1cccc(C(C)(F)F)c1 (stereo not shown) [compound 443]	0.01 to 6 nM
CC1=NN(c2ccc3ccccc3c2)C(=O)C1C(=O)Nc1ccccc1 (stereo not shown) [compound 198, 5-hydroxy-3-methyl-1-(naphthalen-2-yl)-N-phenyl-1H-pyrazole-4-carboxamide]	1000 to 100000 nM
CC1=NN(c2ccc3cc[nH]c3c2)C(=O)C1C(=O)Nc1cccc(C(C)(F)F)c1 (stereo not shown) [compound 410]	0.01 to 6 nM
CC1=NN(c2ccc(OC3CCC3)cc2)C(=O)C1C(=O)Nc1cccc(C(C)(F)F)c1 (stereo not shown) [compound 440]	0.01 to 6 nM
COc1ccc(N2N=C(C)C(C(=O)NCc3ccccc3)C2=O)cc1 (stereo not shown) [compound 358]	100 to 1000 nM
CC1=NN(c2ccc(C3COC3)cc2)C(=O)C1C(=O)Nc1cccc(C(C)(F)F)c1 (stereo not shown) [compound 348]	6 to 100 nM

SMILES	IC50
CC1=NN(c2ccccc2)C(=O)C1C(=O)Nc1cccc(S(=O)(=O)N(C)C)c1 (stereo not shown) [compound 139, N-(3-(N,N-dimethylsulfamoyl)phenyl)-3-methyl-5-oxo-1-phenyl-4,5-dihydro-1H-pyrazole-4-carboxamide]	100 to 1000 nM
CCc1cc(NC(=O)C2C(=O)N(c3ccccc3)N=C2C)cs1 (stereo not shown) [compound 284]	100 to 1000 nM
CC1=NN(c2ccc(OC(F)F)c(-c3nnc(C)[nH]3)c2)C(=O)C1C(=O)Nc1cccc(C(C)(F)F)c1 (stereo not shown) [compound 371]	0.01 to 6 nM
COc1c(-c2ccccc2)cc(N2N=C(C)C(C(=O)Nc3cccc(C(C)(F)F)c3)C2=O)cc1-c1ccccc1 (stereo not shown) [compound 402]	6 to 100 nM
CC1=NN(c2cc(Br)cc(Cc3ccccc3Cl)c2)C(=O)C1C(=O)Nc1cccc(C(C)(F)F)c1 (stereo not shown) [compound 412]	0.01 to 6 nM
CC1=NN(c2ccc(OC(F)F)cc2)C(=O)C1C(=O)Nc1cccc(C(C)(O)c2ccccc2)c1 (stereo not shown) [compound 337]	6 to 100 nM
CC1=NN(c2ccc(OC(F)F)c(-c3ccccc3)c2)C(=O)C1C(=O)Nc1cccc(C(C)(F)F)c1 (stereo not shown) [compound 453]	0.01 to 6 nM
CC1=NN(c2ccc(OC(F)F)c(-c3cccnc3)c2)C(=O)C1C(=O)Nc1cccc(C(C)(F)F)c1 (stereo not shown) [compound 455]	0.01 to 6 nM
CC1=NN(c2ccc(C(F)(F)F)cc2)C(=O)C1C(=O)Nc1cccc(-c2ncc[nH]2)c1 (stereo not shown) [compound 148, N-(3-(1H-imidazol-2-yl)phenyl)-3-methyl-5-oxo-1-(4-(trifluoromethyl)phenyl)-4,5-dihydro-1H-pyrazole-4-carboxamide]	6 to 100 nM
CC1=NN(c2ccc(Cc3ccccc3)c(-c3ccccc3)c2)C(=O)C1C(=O)Nc1cccc(C(C)(F)F)c1 (stereo not shown) [compound 375]	0.01 to 6 nM
CCc1cccc(NC(=O)C2C(=O)N(c3ccccc3)N=C2c2ccccn2)c1 (stereo not shown) [compound 156, N-(3-ethylphenyl)-5-oxo-1-phenyl-3-(pyridin-2-yl)-4,5-dihydro-1H-pyrazole-4-carboxamide]	1000 to 100000 nM
CC(=O)NS(=O)(=O)c1cc(N2N=C(C)C(C(=O)Nc3cccc(C(C)(F)F)c3)C2=O)ccc1OC(F)(F)F (stereo not shown) [compound 294]	6 to 100 nM
COc1cccc(NC(=O)C2C(=O)N(c3ccccc3)N=C2C)c1 (stereo not shown) [compound 211, N-(3-methoxyphenyl)-3-methyl-5-oxo-1-phenyl-4,5-dihydro-1H-pyrazole-4-carboxamide]	6 to 100 nM
CC1=NN(c2cccc(S(=O)(=O)N(C)C)c2)C(=O)C1C(=O)Nc1cccc(-c2ncc[nH]2)c1 (stereo not shown) [compound 277]	6 to 100 nM
CCCOc1ccc(N2N=C(C)C(C(=O)Nc3cccc(CC)c3)C2=O)cc1 (stereo not shown) [compound 158, N-(3-ethylphenyl)-3-methyl-5-oxo-1-(4-propoxyphenyl)-4,5-dihydro-1H-pyrazole-4-carboxamide]	6 to 100 nM
CC1=NN(c2ccncc2)C(=O)C1C(=O)Nc1cccc(-c2ccco2)c1 (stereo not shown) [compound 240]	6 to 100 nM
CC1=NN(c2ccc3ccn(C(C)C)c3c2)C(=O)C1C(=O)Nc1cccc(C(C)(F)F)c1 (stereo not shown) [compound 364]	0.01 to 6 nM
CCc1cccc(NC(=O)C2C(=O)N(c3ccc4cccnc4c3)N=C2C)c1 (stereo not shown) [compound 267]	6 to 100 nM
CCc1cccc(NC(=O)C2C(=O)N(c3ccccc3)N=C2C(C)C)c1 (stereo not shown) [compound 128, N-(3-ethylphenyl)-3-isopropyl-5-oxo-1-phenyl-4,5-dihydro-1H-pyrazole-4-carboxamide]	1000 to 100000 nM
CC1=NN(c2ccc(OC(F)F)cc2)C(=O)C1C(=O)N(C)c1cc(Cl)c(F)c(Cl)c1 (stereo not shown) [compound 391]	100 to 1000 nM
CC1=NN(c2cc(Cc3ccccc3OCc3ccccc3)cc(-c3cccnc3)c2)C(=O)C1C(=O)Nc1cccc(C(C)(F)F)c1 (stereo not shown) [compound 365]	6 to 100 nM

SMILES	IC50
CC1=NN(c2ccc3ccn(Cc4ccccc4)c3c2)C(=O)C1C(=O)Nc1cccc(C(C)(F)F)c1 (stereo not shown) [compound 367]	0.01 to 6 nM
CC1=NN(c2ccccc2)C(=O)C1C(=O)Nc1cccc(C(C)(C)C)c1 (stereo not shown) [compound 115, N-(3-(tert-butyl)phenyl)-3-methyl-5-oxo-1-phenyl-4,5-dihydro-1H-pyrazole-4-carboxamide]	100 to 1000 nM
CC1=NN(c2ccc(OC(F)F)cc2F)C(=O)C1C(=O)Nc1cccc(C(C)(F)F)c1 (stereo not shown) [compound 456]	0.01 to 6 nM
CC1=NN(c2ccc(B(O)O)cc2)C(=O)C1C(=O)Nc1cccc(C(C)(F)F)c1 (stereo not shown) [compound 421]	0.01 to 6 nM
COc1ccc(N2N=C(C)C(C(=O)Nc3cccc(C(C)(F)F)c3)C2=O)cc1-c1ncc(C)o1 (stereo not shown) [compound 352]	0.01 to 6 nM
CC1=NN(c2ccccc2)C(=O)C1C(=O)Nc1ccccn1 (stereo not shown) [compound 214, 3-methyl-5-oxo-1-phenyl-N-(pyridin-2-yl)-4,5-dihydro-1H-pyrazole-4-carboxamide]	> 100000 nM
CC1=NN(c2ccc(S(=O)(=O)N(C)C)cc2)C(=O)C1C(=O)Nc1cccc(-c2cnccn2)c1 (stereo not shown) [compound 262]	6 to 100 nM
CC1=NN(c2ccccc2)C(=O)C1C(=O)Nc1cccc(CN)c1 (stereo not shown) [compound 223, N-(3-(aminomethyl)phenyl)-3-methyl-5-oxo-1-phenyl-4,5-dihydro-1H-pyrazole-4-carboxamide]	1000 to 100000 nM
CCC(F)(F)c1cccc(NC(=O)C2C(=O)N(c3ccc4ccn(C(C)C)c4c3)N=C2C)c1 (stereo not shown) [compound 360]	0.01 to 6 nM
CC1=NN(c2ccccc2)C(=O)C1C(=O)Nc1cccc(-c2ccon2)c1 (stereo not shown) [compound 239]	1000 to 100000 nM
COc1ccc(N2N=C(C)C(C(=O)Nc3cccc(C(C)(F)F)c3)C2=O)cc1-c1nnc(C)o1 (stereo not shown) [compound 430]	0.01 to 6 nM
CCc1cscc1NC(=O)C1C(=O)N(c2ccccc2)N=C1C (stereo not shown) [compound 290]	100 to 1000 nM
CC1=NN(c2ccccc2)C(=O)C1C(=O)Nc1cccc(CC(C)C)c1 (stereo not shown) [compound 147, N-(3-isobutylphenyl)-3-methyl-5-oxo-1-phenyl-4,5-dihydro-1H-pyrazole-4-carboxamide]	100 to 1000 nM
CC(=O)c1cc(NC(=O)C2C(=O)N(c3ccc(OC(F)F)cc3)N=C2C)c2[nH]ccc2c1 (stereo not shown) [compound 408]	100 to 1000 nM
COc1ccc(N2N=C(C)C(C(=O)Nc3cccc(C(C)(F)F)c3)C2=O)cc1-c1ccncc1 (stereo not shown) [compound 431]	0.01 to 6 nM
CC1=NN(c2ccccc2)C(=O)C1C(=O)Nc1nccn1C (stereo not shown) [compound 268]	1000 to 100000 nM
COc1ccc(N2N=C(C)C(C(=O)Nc3cccc(C(C)(F)F)c3)C2=O)cc1-c1ccccn1 (stereo not shown) [compound 434]	0.01 to 6 nM
CCc1cccc(NC(=O)C2C(=O)N(c3ccccc3)N=C2c2ccccc2)c1 (stereo not shown) [compound 126, N-(3-ethylphenyl)-5-oxo-1,3-diphenyl-4,5-dihydro-1H-pyrazole-4-carboxamide]	1000 to 100000 nM
CC1=NN(c2ccc(OC(F)F)cc2)C(=O)C1C(=O)Nc1cccc2[nH]ccc12 (stereo not shown) [compound 350]	100 to 1000 nM
